These results are taken from patent US20230372318A1, “METHODS FOR TREATING A SUBJECT HAVING MULTIPLE SYSTEM ATROPHY” (Theravance Biopharma R&D IP, LLC, priority 2022, published 2023).

Data set [1] deals with T1, human recombinant SERT (Homo sapiens, UniProt P31645).
T1 construct: expressed in transfected cells; host or cells: HEK293
As to the kind of experiment: Radioligand binding, [3H]-citalopram, HEK293-hSERT membranes. The following applies: mean (95% confidence intervals). The source says:
(§1) The in vitro pharmacology of ampreloxetine at human recombinant and rat native monoamine transporters was characterized as described in Smith et al., Inter. J. Neuropsychopharmcol. (2015) 1-11; and Tsuruda et al., J. Pharmacol. Toxicol. Meth. (2010) 61:192-204. See also, e.g., U.S. Pat. Nos. 8,304,432 B2 and 8,304,433 B2. Radioligands were sourced commercially (Perkin Elmer LifeSciences or GE Healthcare Life Sciences).
(§2) Briefly, membranes prepared from HEK293 (Human Embryonic Kidney 293) or CHO-K1 (Chinese Hamster Ovary-K1) cells stably transfected with human recombinant SERT (HEK293-hSERT), NET (HEK293-hNET), or DAT (CHO-K1-hDAT) were incubated for 1 hr at 22° C. in the absence, or presence, of 4-[2-(2,4,6-trifluorophenoxymethyl)phenyl]piperidine and [^3H]-citalopram (1.0 nM) for SERT, [^3H]-nisoxetine (2.0 nM) for NET, and [^3H]-WIN35428 (3.0 nM) for DAT in 50 mM Tris-HCl, 120 mM NaCl, 5 mM KCl, 0.025% BSA, 100 μM ascorbic acid, pH 7.4. Rat cortical membrane preparations were incubated with [^3H]-citalopram (2.0 nM) for SERT or [^3H]-nisoxetine (4.0 nM) for NET for 1 hr at 22° C. […] Binding and uptake assays were terminated by rapid filtration and radioactivity determined by liquid scintillation spectroscopy. […] Selectivity for NET (rounded to one significant figure) was determined as follows: […]

Data set [2] has as its target T2, human recombinant NET (Homo sapiens, UniProt P23975).
T2 construct: expressed in transfected cells; host or cells: HEK293
Nature of the data set: Radioligand binding, [3H]-nisoxetine, HEK293-hNET membranes. Particulars: mean (95% confidence intervals).
Text: as §1, §2

Data set [3] concerns the target T3, SERT (Rattus norvegicus, UniProt P31652).
T3 construct: from tissue; host or cells: lumbar spinal cord of orally dosed male Sprague Dawley rats
Nature of the data set: Ex vivo transporter occupancy in rat spinal cord (SERT). The procedure:
(§3) Adult male Sprague Dawley rats (Charles River) were housed under controlled laboratory conditions (temperature at 21±1° C.) on a 12:12 hour light-dark cycle. Animals were given free access to food and water upon arrival to the facility and animals were acclimatized to their holding room for at least 48 hours. Animals were fasted but allowed free access to water for 15-18 hours prior to dosing.
(§4) Rats (n=6/timepoint/dose level) received a single oral dose of 4-[2-(2,4,6-trifluorophenoxymethyl)phenyl]piperidine (0.3, 1, 5, 10, 30, and 60 mg/kg) and were euthanized by decapitation at specified time points (0.5, 2, 4, 6, and 8 hr for 5 mg/kg dose level; 2 hr for 0.3, 1, 10, 30, and 60 mg/kg dose levels) post-administration. Spinal cords were dissected for ex vivo transporter occupancy and PK assessments from the same animals. The spinal cord was harvested by hydraulic extrusion using phosphate-buffered saline, and the lumbar segment dissected and frozen on dry ice. The remaining spinal cord segments were collected and homogenized in water (25% w/w) for PK analysis. All samples were stored at −80° C. until analysis.
(§5) A kinetic radioligand binding assay was used to determine NET and SERT occupancy in rat spinal cord, as described previously in Bourdet et al., J. Pharm. Exp. Ther. (2012) 341:137-145. PK/PD parameters were estimated by a compartmental modeling approach (WinNonlin Version 5.0.1, Pharsight Corporation). One- and two-compartment PK models with first-order absorption and elimination were evaluated. The one-compartment model was selected. The pharmacodynamics model was an effect compartment Emax model linked directly to the central PK compartment (WinNonlin PK Model 3, PD Model 101). Selection of models was based upon best fit in terms of visual inspection, Akaike Information Criteria, and weighted residual sum of squares using the Gauss-Newton minimization method.

The target in data set [4] is T4, NET (Rattus norvegicus, UniProt Q63380).
T4 construct: from tissue; host or cells: lumbar spinal cord of orally dosed male Sprague Dawley rats
As to the kind of experiment: Ex vivo transporter occupancy in rat spinal cord (NET). The procedure: as §3, §4, §5

Data set [5] in a line: Rat oral pharmacokinetics, one-compartment PK/PD model. Format: in vivo. The procedure: as §3, §4, §5
In data set [6] the test system is subjects with symptomatic nOH. Particulars: cited from earlier work.
The test system of data set [7] is subjects with primary autonomic failures (MSA, PD, or PAF) and symptomatic nOH. As to the kind of experiment: Phase 3 4-week clinical study in symptomatic nOH (Example 6).
Text: The first Phase 3 study was a randomized, double-blind, placebo-controlled, parallel-group, multicenter study designed to evaluate its efficacy, safety, and tolerability in subjects with primary autonomic failures (MSA, PD, or PAF) and symptomatic nOH after 4 weeks of treatment.
This study was a Phase 3, randomized, double-blind, placebo-controlled, parallel-group, multicenter study to evaluate efficacy, safety, and tolerability of ampreloxetine (administered as ampreloxetine hydrochloride) in subjects with primary autonomic failures (MSA, PD, or PAF) and symptomatic nOH after four weeks of treatment. Subjects participated in the study for approximately 10 weeks.
Subjects were randomized in a 1:1 ratio to each of either ampreloxetine or placebo group stratified by the subject's disease type (MSA, PD, or PAF).
Subjects were randomized in a 1:1 ratio to receive either ampreloxetine (test product) or placebo (reference product) once daily through the end of the treatment period.
Subjects randomized to receive ampreloxetine began taking study medication on Day 2 in the morning at a dose of 10 mg and continued to take this dose once daily through the end of the treatment period.
The study consisted of three periods: (i) 4-week screening, (ii) 4-week randomized treatment, and (iii) 2-week follow up.
Following randomization and completion of study assessments, the subject received a single 10-mg dose of ampreloxetine (or matching placebo) once daily (QD) for the remaining double-blind treatment period.
The efficacy assessments for this study included: OHQ; PGI-C; and incidence of falls. The exploratory assessments included: Orthostatic standing test; PK and pharmacodynamics; Non-Motor Symptom Scale (NMSS); EQ-5D-5L; Hospital Anxiety and Depression Scale (HADS); and Burden Scale for Family Caregivers-short version (BSFC-s).
The primary study endpoint was the change from baseline in OHSA #1 (dizziness, lightheadedness, feeling faint, or feeling like blacking out) at Week 4.
The primary efficacy evaluation was the change from baseline of OHSA #1 at Week 4. Baseline was defined as Day 1 pre-dose measurement. A mixed model for repeated measures (MMRM) was fitted to compare treatments. The model included fixed effect class terms of treatment, baseline disease type (MSA, PD, PAF), week, and continuous covariate of baseline OHSA #1 score, a random subject effect, with an unstructured covariance structure using the FAS.
Where [8] appears, read: rat, single oral dose, effect compartment PK/PD model.
[9] abbreviates: rat, central PK compartment to effect compartment.
The mark [10] stands for this setting: MSA subjects, Week 4, 10 mg, N 33.

Usually EC50 stands for the midpoint of the concentration-response curve. The low end stands for higher potency in that assay, the high end for lower potency in that assay.

Entries after “also recorded” stand apart in the source; their conditions may differ.

T3 sequence (P31652 whole entry): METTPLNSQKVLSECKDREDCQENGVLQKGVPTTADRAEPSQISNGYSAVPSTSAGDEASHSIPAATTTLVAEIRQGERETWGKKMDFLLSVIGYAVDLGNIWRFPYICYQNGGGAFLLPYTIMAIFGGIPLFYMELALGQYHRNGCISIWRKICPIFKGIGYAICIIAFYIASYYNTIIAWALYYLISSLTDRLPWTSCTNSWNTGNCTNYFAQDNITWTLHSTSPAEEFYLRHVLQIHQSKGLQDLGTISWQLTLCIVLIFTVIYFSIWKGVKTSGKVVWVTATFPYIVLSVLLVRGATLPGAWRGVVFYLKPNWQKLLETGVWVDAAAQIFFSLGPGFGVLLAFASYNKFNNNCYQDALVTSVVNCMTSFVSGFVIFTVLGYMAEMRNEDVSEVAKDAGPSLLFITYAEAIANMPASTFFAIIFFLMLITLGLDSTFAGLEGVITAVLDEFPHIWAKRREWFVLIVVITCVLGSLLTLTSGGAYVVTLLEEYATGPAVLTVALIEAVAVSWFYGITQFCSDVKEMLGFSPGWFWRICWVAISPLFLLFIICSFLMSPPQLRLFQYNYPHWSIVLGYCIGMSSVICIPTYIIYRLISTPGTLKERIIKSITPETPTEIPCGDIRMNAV
T4 sequence (Q63380 1-617): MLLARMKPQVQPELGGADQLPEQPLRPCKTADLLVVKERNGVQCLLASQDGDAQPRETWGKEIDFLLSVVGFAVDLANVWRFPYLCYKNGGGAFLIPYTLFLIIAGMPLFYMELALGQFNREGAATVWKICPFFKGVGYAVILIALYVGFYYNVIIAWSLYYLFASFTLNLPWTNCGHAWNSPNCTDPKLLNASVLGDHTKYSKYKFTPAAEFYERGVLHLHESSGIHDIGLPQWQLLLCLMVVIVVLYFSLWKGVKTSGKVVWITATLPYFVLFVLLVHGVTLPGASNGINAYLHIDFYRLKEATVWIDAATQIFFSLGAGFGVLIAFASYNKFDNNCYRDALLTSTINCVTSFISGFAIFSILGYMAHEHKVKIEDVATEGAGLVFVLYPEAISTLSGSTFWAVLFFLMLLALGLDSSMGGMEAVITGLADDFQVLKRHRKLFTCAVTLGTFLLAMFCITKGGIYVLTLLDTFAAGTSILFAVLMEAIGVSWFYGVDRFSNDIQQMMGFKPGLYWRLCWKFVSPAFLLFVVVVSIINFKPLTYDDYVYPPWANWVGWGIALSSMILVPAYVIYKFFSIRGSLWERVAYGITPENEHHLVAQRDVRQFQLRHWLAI
T2 sequence (P23975 whole entry): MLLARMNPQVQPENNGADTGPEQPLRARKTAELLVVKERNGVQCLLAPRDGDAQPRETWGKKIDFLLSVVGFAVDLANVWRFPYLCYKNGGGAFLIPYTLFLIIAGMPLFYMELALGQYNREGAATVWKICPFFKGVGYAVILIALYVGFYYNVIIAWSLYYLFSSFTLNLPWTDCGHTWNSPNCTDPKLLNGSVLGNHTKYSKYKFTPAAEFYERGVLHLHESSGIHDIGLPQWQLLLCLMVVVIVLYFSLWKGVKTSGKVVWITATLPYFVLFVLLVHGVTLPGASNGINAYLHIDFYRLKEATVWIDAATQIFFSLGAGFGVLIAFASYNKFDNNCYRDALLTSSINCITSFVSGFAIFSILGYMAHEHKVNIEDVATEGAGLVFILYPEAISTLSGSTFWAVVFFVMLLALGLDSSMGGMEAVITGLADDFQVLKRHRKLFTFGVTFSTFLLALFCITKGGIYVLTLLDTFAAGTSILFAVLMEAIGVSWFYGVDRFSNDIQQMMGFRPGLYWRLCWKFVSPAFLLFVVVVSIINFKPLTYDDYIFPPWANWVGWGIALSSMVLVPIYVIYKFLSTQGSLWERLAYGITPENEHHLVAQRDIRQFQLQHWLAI
T1 sequence (P31645 whole entry): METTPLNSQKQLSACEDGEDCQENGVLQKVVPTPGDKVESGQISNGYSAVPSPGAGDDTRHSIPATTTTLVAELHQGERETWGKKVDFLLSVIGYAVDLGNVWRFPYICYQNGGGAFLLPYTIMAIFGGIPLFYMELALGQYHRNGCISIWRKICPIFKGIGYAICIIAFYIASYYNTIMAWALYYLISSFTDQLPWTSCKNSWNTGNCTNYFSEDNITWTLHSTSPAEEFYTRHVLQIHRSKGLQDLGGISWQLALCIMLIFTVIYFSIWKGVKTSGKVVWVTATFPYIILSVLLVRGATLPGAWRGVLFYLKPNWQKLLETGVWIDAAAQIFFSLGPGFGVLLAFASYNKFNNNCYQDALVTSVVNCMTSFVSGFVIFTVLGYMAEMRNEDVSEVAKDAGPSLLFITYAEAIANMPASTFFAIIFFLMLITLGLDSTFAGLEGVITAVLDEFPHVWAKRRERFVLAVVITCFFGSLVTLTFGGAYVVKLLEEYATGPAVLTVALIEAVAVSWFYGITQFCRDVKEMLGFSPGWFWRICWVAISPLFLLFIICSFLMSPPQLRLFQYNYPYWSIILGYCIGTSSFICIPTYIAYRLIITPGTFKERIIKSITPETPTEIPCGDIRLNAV

With `Fc1cc(F)c(OCc2ccccc2C2CCNCC2)c(F)c1` [Ampreloxetine, 4-[2-(2,4,6-trifluorophenoxymethyl)phenyl]piperidine], the “Transporter Binding: pKi, SERT” value in data set [1] was 8.5 (8.5, 8.6). The “Transporter Binding: pKi, NET” value in data set [2] is 8.8 (8.8, 8.9). Also, in data set [3] (rat spinal cord, oral dose), the “EC50, plasma concentration associated with 50% SERT occupancy” value stood at 0.0508 µg/mL. Besides, the “Emax, maximal SERT occupancy in spinal cord” value in data set [3] (setting [8]) was found to be 79.0 % occupancy. The “keo, first-order equilibration rate constant, SERT” value in data set [3] (setting [9]) is 11.0 h⁻¹. For the same compound, the midpoint of the response in data set [4] (projected from rat EC50 accounting for species differences in plasma protein binding), the EC50, lay at 17.1 nM. The “EC50, plasma concentration associated with 50% NET occupancy” value in data set [4] (rat spinal cord, oral dose) is 0.0117 µg/mL. In addition, the “Emax, maximal NET occupancy in spinal cord” value in data set [4] (setting [8]) is 92.0 % occupancy. Moreover, the “keo, first-order equilibration rate constant, NET” value in data set [4] (setting [9]) amounted to 1.78 h⁻¹. For the same compound, in data set [5], the “V/F, volume of the central compartment divided by oral bioavailability” value is reported as 54.8 L/kg; the “k01, first-order absorption rate constant” value is 0.777 h⁻¹; the “k10, elimination rate constant from the central compartment” value worked out at 0.319 h⁻¹. For the same compound, in data set [6] (Part A, 4 hours after dosing at 10 mg), the “Improvement in standing time” value is “approximately 100 seconds”. The “Dose response of single ascending doses” value in data set [6] (Part A, up to 20 mg) is “no dose response was observed”. In addition, the “SBP following 3 minutes of standing” value in data set [6] (Part B, up to 15 mg, 4- and 7-hours post-dose) is on record as “sustained increase in SBP over baseline”. In data set [6] (Part C, open-label 3-20 mg once-daily up to 20 weeks), the “Improvement from baseline of at least 2 points in OHSA #1 score” value is “A large proportion of subjects met this endpoint”. In data set [7] (10 mg once daily, 4 weeks), the Deaths result is given as “no deaths were reported” and the Supine hypertension entry was “no signal for supine hypertension”. Besides, the “Serious adverse events, number of subjects” value in data set [7] (10 mg once daily, 4 weeks, none considered related to study drug) was “four”. In data set [7] (MSA subjects, Week 4, 10 mg vs placebo, P-value 0.136), the “Anxiety Total Score, Change from Baseline, LS Mean Difference” value is reported as −1.09. Besides, in data set [7] (setting [10]), the “Anxiety Total Score, Change from Baseline, LS Mean” value was −0.75; the “Anxiety Total Score, Change from Baseline, Mean” value is reported as −0.67; the “Anxiety Total Score, Change from Baseline, Median” value is listed as −1.00. Further, the “Primary endpoint: change from baseline of OHSA #1 score vs placebo” value in data set [7] (Week 4, 10 mg once daily, MSA, PD or PAF) is “did not meet its primary endpoint; also recorded: did not meet the primary endpoint”.
